Format in all cases: cell-based
For assay [1], the system named is Human Monocytic Leukemia MV4-11. Description: Cell proliferation experiment (Alarm blue, 72 h, EC50). As to conditions: Homo sapiens. Put shortly:
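EC50 values derive from Alamar blue fluorescence measured after cells in 96-well plates were incubated 72 h with compound diluted 5-fold per step in complete medium.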

Assay [2] concerns the target T1, BRD4 (Homo sapiens, UniProt O60885).
T1 construct: endogenous in cells
Description: Western blot, protein degradation (DC50). On the procedure: (§1) Cells were treated with the compound for a period of time, after that the cells were collected by centrifugation. After washing with PBS, the cells were lysed by adding RIPA buffer; the cell lysate were added to the loading buffer and then appropriate volume were taken and slowly added to the corresponding wells of the gel plate, and run the SDS-PAGE gel (4%-12%). After running the gel, transferred to the PVDF membrane and sealed with 5% skimmed milk powder at room temperature for 1 hour. The membrane was placed in the primary antibody diluted with 5% skimmed milk powder and shaked slowly overnight at 4° C. After incubation with primary antibody, the membrane was washed 3 times using a TBST shaker; added secondary antibody diluted with 5% skimmed milk powder corresponding to the primary antibody, and shaked slowly at room temperature for 1 hour. After incubation with secondary antibody, the membrane was washed 3 times using the TBST shaker again. The PVDF membrane was flatted in the cassette, the strip was evenly infiltrated with ECL developer solution, and placed in ChemDoc XRS+ gel imager for taking pictures. The intensity of protein bands was analyzed quantitatively using ImageJ software.
A general note: Immunoblotting shows a protein as a band on a membrane.

Assay [3] addresses T2, PLK1 (Homo sapiens, UniProt P53350).
T2 construct: endogenous in cells
Description: Western blot, protein degradation (DC50). On the procedure: as §1

Setting [4] is: 6 h, western blot, read-out: BRD4 DC50 (6 h).
Where [5] appears, read: 6 h, western blot, read-out: PLK1 DC50 (6 h).
Where [6] appears, read: 24 h, read-out: BRD4 DC50 (24 h).
The mark [7] stands for this setting: 24 h, western blot, read-out: BRD4 DC50 (24 h).
The mark [8] stands for this setting: 24 h, western blot, read-out: PLK1 DC50 (24 h).

From patent publication US20210369853A1, “TARGETED PROTEASE DEGRADATION PLATFORM” (EUBULUS BIOTHERAPEUTICS INC., priority 2018, published 2021) come the findings set out here.

Like-named read-outs stand apart in the source and are kept apart here.

T2 sequence (P53350 whole entry): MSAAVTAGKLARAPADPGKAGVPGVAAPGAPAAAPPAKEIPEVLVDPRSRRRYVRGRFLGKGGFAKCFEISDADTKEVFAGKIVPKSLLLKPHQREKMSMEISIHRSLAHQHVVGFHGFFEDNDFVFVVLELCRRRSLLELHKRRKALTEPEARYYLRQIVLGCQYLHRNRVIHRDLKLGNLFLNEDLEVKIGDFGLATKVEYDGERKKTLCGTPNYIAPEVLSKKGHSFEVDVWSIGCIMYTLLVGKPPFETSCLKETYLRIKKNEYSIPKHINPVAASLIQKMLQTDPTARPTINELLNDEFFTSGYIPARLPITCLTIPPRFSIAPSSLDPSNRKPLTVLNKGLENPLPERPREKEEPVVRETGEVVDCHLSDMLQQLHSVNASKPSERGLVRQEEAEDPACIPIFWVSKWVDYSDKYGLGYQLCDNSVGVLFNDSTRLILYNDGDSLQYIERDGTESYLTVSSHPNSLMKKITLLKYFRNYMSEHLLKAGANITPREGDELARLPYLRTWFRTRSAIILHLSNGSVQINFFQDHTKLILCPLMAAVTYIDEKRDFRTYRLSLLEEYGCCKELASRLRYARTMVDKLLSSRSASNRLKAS

By EC50 is commonly meant the concentration giving half of the maximal effect. A higher EC50 goes with a need for much substance. Usually DC50 stands for the concentration giving 50% degradation. In the case of `CC[C@@H]1C(=O)N(C)c2cnc(Nc3ccc(C(=O)NCCNc4cccc5c4CN(C4CCC(=O)NC4=O)C5=O)cc3OC)nc2N1C1CCCC1` (stereo partly shown) [UB-180567], the concentration giving a half-maximal response (EC50) in assay [1] (MV4-11, MV4;11 cells) lay within 10 to 100 nM. In addition, the half-maximal degradation concentration (DC50) in assay [2] (setting [4]) and in assay [3] (setting [5]) was over 1000 nM throughout.

On to `CC[C@@H]1C(=O)N(C)c2cnc(Nc3ccc(C(=O)NCCCNc4cccc5c4C(=O)N(C4CCC(=O)NC4=O)C5=O)cc3OC)nc2N1C1CCCC1` (stereo partly shown) [UB-180579], for which the EC50 in assay [1] (MV4-11, MV4;11 cells) lay in the range of 10 to 100 nM. Further, the DC50 was 100 to 1000 nM in assay [2] (6 h, read-out: BRD4 DC50 (6 h)) and 100 to 1000 nM in assay [3] (6 h, read-out: PLK1 DC50 (6 h)).

With `CC[C@@H]1c2c(C#N)ncn2-c2cnc(Nc3ccc(C(=O)NCCOCCOCCOCC(=O)Nc4cccc5c4C(=O)N(C4CCC(=O)NC4=O)C5=O)cc3OC)nc2N1Cc1ccc(Br)cc1` (stereo partly shown) [UB-180594], the DC50 in assay [2] (6 h, read-out: BRD4 DC50 (6 h)) was over 1000 nM; in assay [3] (6 h, read-out: PLK1 DC50 (6 h)), over 1000 nM.

With `CC[C@@H]1C(=O)N(C)c2cnc(Nc3ccc(C(=O)NCCOCCOCCOCC(=O)N[C@H](C(=O)N4C[C@H](O)C[C@H]4C(=O)NCc4ccc(-c5scnc5C)cc4)C(C)(C)C)cc3OC)nc2N1Cc1ccc(Br)cc1` [UB-180601], the DC50 in assay [2] (6 h, read-out: BRD4 DC50 (6 h)) was over 1000 nM; in assay [3] (6 h, read-out: PLK1 DC50 (6 h)), over 1000 nM.

`CC[C@@H]1C(=O)N(C)c2cnc(Nc3ccc(C(=O)NCCOCCOCCOCCC(=O)N[C@H](C(=O)N4C[C@H](O)C[C@H]4C(=O)NCc4ccc(-c5scnc5C)cc4)C(C)(C)C)cc3OC)nc2N1Cc1ccc(Br)cc1` [UB-180602]: the DC50 in assay [2] (6 h, read-out: BRD4 DC50 (6 h)) was over 1000 nM; in assay [3] (6 h, read-out: PLK1 DC50 (6 h)), over 1000 nM.

Consider `CC[C@@H]1C(=O)N(C)c2cnc(Nc3ccc(C(=O)NCCCOCC(N)COCCC(=O)Nc4cccc5c4CN(C4CCC(=O)NC4=O)C5=O)cc3OC)nc2N1C1CCCC1` (stereo partly shown) [UB-180624], for which the 50% effective concentration (EC50) in assay [1] (MV4-11, MV4;11 cells) is 10 to 100 nM. In addition, the DC50 in assay [2] (setting [6]) was under 10 nM.

Take `CC[C@@H]1C(=O)N(C)c2cnc(Nc3ccc(C(=O)NCCCNCCCCCCC(=O)Nc4cccc5c4CN(C4CCC(=O)NC4=O)C5=O)cc3OC)nc2N1C1CCCC1` (stereo partly shown) [UB-180631]: the EC50 in assay [1] (MV4-11, MV4;11 cells) fell in the range of 10 to 100 nM. The DC50 in assay [2] (setting [6]) is under 10 nM; in assay [3] (24 h, read-out: PLK1 DC50 (24 h)), 10 to 100 nM.

In turn, `CC[C@@H]1C(=O)N(C)c2cnc(Nc3ccc(C(=O)NCCCNCCCCCCCC(=O)Nc4cccc5c4CN(C4CCC(=O)NC4=O)C5=O)cc3OC)nc2N1C1CCCC1` (stereo partly shown) [UB-180632] gave an EC50 in assay [1] (MV4-11, MV4;11 cells) of 10 to 100 nM. Also, the DC50 in assay [2] (6 h, read-out: BRD4 DC50 (6 h)) is under 10 nM; in assay [3] (6 h, read-out: PLK1 DC50 (6 h)) it was under 10 nM.

Molecule `CC[C@@H]1C(=O)N(C)c2cnc(Nc3ccc(C(=O)NCCOCCOCCOCCNCCCC(=O)Nc4cccc5c4CN(C4CCC(=O)NC4=O)C5=O)cc3OC)nc2N1C1CCCC1` (stereo partly shown) [UB-180636] gave an EC50 in assay [1] (MV4;11 cells) of 10 to 100 nM. Also, the DC50 in assay [2] (6 h, read-out: BRD4 DC50 (6 h)) is 10 to 100 nM; in assay [3] (6 h, read-out: PLK1 DC50 (6 h)) it was 10 to 100 nM.

With `CC[C@@H]1C(=O)N(C)c2cnc(Nc3ccc(C(=O)NCCCNCCCCCC(=O)Nc4cccc5c4CN(C4CCC(=O)NC4=O)C5=O)cc3OC)nc2N1C1CCCC1` (stereo partly shown) [UB-180659], in assay [1] (MV4;11 cells), the 50% effective concentration (EC50) lay in the range of 10 to 100 nM. Also, the values for the DC50 in assay [2] (setting [7]) and in assay [3] (setting [8]) were under 10 nM and 100 to 1000 nM, respectively.

In the case of `CC[C@@H]1C(=O)N(C)c2cnc(Nc3ccc(C(=O)NCCOCCOCCOCCNCC(=O)Nc4cccc5c4CN(C4CCC(=O)NC4=O)C5=O)cc3OC)nc2N1C1CCCC1` (stereo partly shown) [UB-180663], the EC50 in assay [1] (MV4;11 cells) was in the range of 10 to 100 nM. Moreover, the DC50 in assay [2] (setting [4]), in assay [2] (setting [7]), in assay [3] (setting [5]) and in assay [3] (setting [8]) was under 10 nM each time.

In the case of `CC[C@@H]1C(=O)N(C)c2cnc(Nc3ccc(C(=O)NCCOCCOCCOCCNCCCCC(=O)Nc4cccc5c4CN(C4CCC(=O)NC4=O)C5=O)cc3OC)nc2N1C1CCCC1` (stereo partly shown) [UB-180666], in assay [1] (MV4-11, MV4;11 cells), the EC50 fell in the range of 10 to 100 nM. The 50% degradation concentration (DC50) in assay [2] (setting [7]) is under 10 nM; in assay [3] (setting [8]), 10 to 100 nM.

With `CC[C@@H]1C(=O)N(C)c2cnc(Nc3ccc(C(=O)NCCCNCCCCC(=O)Nc4cccc5c4CN(C4CCC(=O)NC4=O)C5=O)cc3OC)nc2N1Cc1ccc(Cl)s1` (stereo partly shown) [UB-180673], in assay [1] (MV4-11, MV4;11 cells), the EC50 is 10 to 100 nM. For the same molecule, the DC50 in assay [2] (setting [4]) and in assay [3] (setting [5]) was 10 to 100 nM each time.

`CC[C@@H]1C(=O)N(C)c2cnc(Nc3ccc(C(=O)NCCCNCCCCCCCC(=O)Nc4cccc5c4CN(C4CCC(=O)NC4=O)C5=O)cc3OC)nc2N1Cc1ccc(Cl)s1` (stereo partly shown) [UB-180674]: the concentration giving a half-maximal response (EC50) in assay [1] (MV4-11, MV4;11 cells) was under 10 nM. Further, the DC50 in assay [2] (setting [4]) and in assay [3] (setting [5]) was under 10 nM throughout.
